The text below walks through data of ChEMBL document CHEMBL3286182, “4-aminoquinolone piperidine amides: noncovalent inhibitors of DprE1 with long residence time and potent antimycobacterial activity” (J Med Chem, 2014).

What all share (type): functional
Assay [1] deals with Mycobacterium tuberculosis. The assay is described as follows: Antimycobacterial activity against BTZ043-resistant Mycobacterium tuberculosis over expressing DprE1 C387S mutant after 5 days by standard microdilution method.
The subject of assay [2] is Mycobacterium tuberculosis. The assay can be described thus: Antimycobacterial activity against TMC207R-resistant Mycobacterium tuberculosis clone 8.1 over expressing DprE1 mutant after 5 days by standard microdilution method.
For assay [3], the system named is Mycobacterium tuberculosis. The assay is described as follows: Antimycobacterial activity against moxifloxacin-resistant Mycobacterium tuberculosis clone 4.1 over expressing DprE1 mutant after 5 days by standard microdilution method.
Assay [4] relates to Mycobacterium tuberculosis. The assay is described as follows: Antimycobacterial activity against Mycobacterium tuberculosis over expressing DprE1 Y314H mutant after 5 days by standard microdilution method.

Structures are written as SMILES. ≈ marks a conversion by molar mass, not a printed value. Where only a bound is given, the exact number is not on record here.

As for `Cn1ncc(C(=O)N2CCC(Nc3cc(=O)[nH]c4ccccc34)CC2)c1Cl`, the minimum inhibitory concentration (MIC) came out at 100 µM (≈ 38.6 µg/mL) in assay [1], 3.1 µM (≈ 1.2 µg/mL) in assay [2], 1.6 µM (≈ 0.617 µg/mL) in assay [3] and 100 µM (≈ 38.6 µg/mL) in assay [4].

For `Cn1ncc(C(=O)N2CCC(Nc3cc(=O)[nH]c4ccc(F)cc34)CC2)c1Cl`, the MIC in assay [1] stood at 25 µM (≈ 10.1 µg/mL); in assay [2], 1.6 µM (≈ 0.646 µg/mL); in assay [3], 1.6 µM (≈ 0.646 µg/mL); in assay [4] it was 25 µM (≈ 10.1 µg/mL).

As to `Cn1ncc(C(=O)N2CCC(Nc3cc(=O)[nH]c4cc(F)c(F)cc34)CC2)c1Cl`, the MIC in assay [1] was found to be 3.12 µM (≈ 1.32 µg/mL); in assay [2] it was 0.2 µM (≈ 0.0844 µg/mL); in assay [3] it was 0.2 µM (≈ 0.0844 µg/mL); in assay [4] it was 50 µM (≈ 21.1 µg/mL).

With `Cn1ncc(C(=O)N2[C@@H]3CC[C@H]2C[C@@H](Nc2cc(=O)[nH]c4ccc(F)cc24)C3)c1Cl`, the MIC in assay [1] was 1.56 µM (≈ 0.671 µg/mL); in assay [4], under 0.39 µM.

Regarding `Cc1onc(C(=O)N2CCC(Nc3cc(=O)n(C)c4cc(F)c(F)cc34)CC2)c1C`, the MIC in assay [1] was 6.25 µM (≈ 2.6 µg/mL); in assay [4], under 25 µM.

With `C[C@H]1C[C@H](Nc2cc(=O)[nH]c3cc(F)c(F)cc23)CCN1C(=O)c1cnn(C)c1Cl`, the MIC in assay [1] worked out at 6.25 µM (≈ 2.72 µg/mL); in assay [4], 0.78 µM (≈ 0.34 µg/mL).

On to `COc1nc2ccc(Br)cc2cc1[C@@H](c1ccccc1)[C@@](O)(CCN(C)C)c1cccc2ccccc12` [BEDAQUILINE], for which the figures for the MIC in assay [1], in assay [2] and in assay [3] were 0.4 µM (≈ 0.222 µg/mL), 50 µM (≈ 27.8 µg/mL) and 1.6 µM (≈ 0.889 µg/mL), respectively.

For the compound `C[C@H]1COC2(CCN(c3nc(=O)c4cc(C(F)(F)F)cc([N+](=O)[O-])c4s3)CC2)O1` [BTZ-043], the MIC was 25 µM (≈ 10.8 µg/mL) in assay [1], 0.002 µM (≈ 0.000863 µg/mL) in assay [2] and 0.003 µM (≈ 0.00129 µg/mL) in assay [3].

Regarding `NNC(=O)c1ccncc1` [ISONIAZID], the MIC in assay [1] was found to be 0.45 µM (≈ 0.0617 µg/mL); in assay [2], 0.23 µM (≈ 0.0315 µg/mL); in assay [3], 0.45 µM (≈ 0.0617 µg/mL).

`COc1c(N2C[C@@H]3CCCN[C@@H]3C2)c(F)cc2c(=O)c(C(=O)O)cn(C3CC3)c12` [MOXIFLOXACIN] gave an MIC in assay [1] of 0.08 µM (≈ 0.0321 µg/mL).
